In the supplement of paper PMC6461962:

Assays:
[1] = test system: Pseudomonas fluorescens FW300-N2E2
Procedure, shortened: (§1)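 Washed cells (80 µL, final OD600 0.02) were dispensed onto 384-well dilution series of inorganic ion salts or equimolar nitrilotriacetic acid complexes. Plates kept aerobically were shaken at 700 rpm at 30 °C, anaerobic ones stayed still, and OD600 readings at 24 h (48 h for R2A strain comparisons) were scaled between water and growth-blocking antibiotic controls, ignoring wells with precipitate. IC50 values are drc R package fits of at least two biological replicate curves.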

[2] = test system: Rhodanobacter sp. FW104-10B01
Procedure, shortened: as §1

[3] = medium / electron acceptor: N2E2 Glucose/aerobic
[4] = medium / electron acceptor: N2E2 Glucose/aerobic 0.25xMinerals
[5] = medium / electron acceptor: N2E2 Glucose/aerobic (2)
[6] = medium / electron acceptor: N2E2 KB/aerobic
[7] = medium / electron acceptor: N2E2 LB/aerobic
[8] = medium / electron acceptor: N2E2 LB/aerobic (2)
[9] = medium / electron acceptor: N2E2 LB/nitrate
[10] = medium / electron acceptor: N2E2 Lactate/aerobic
[11] = medium / electron acceptor: N2E2 R2A/aerobic
[12] = medium / electron acceptor: 10B01 R2A/aerobic
[13] = medium / electron acceptor: 10B01 R2A/nitrate

Compound: [Cl-].[Rb+] [rubidium chloride]
- IC50 growth inhibition [1, 3]: 17.4 mM
- IC50 growth inhibition [1, 4]: 251 mM
- IC50 growth inhibition [1, 5]: 15.7 mM
- IC50 growth inhibition [1, 6]: 349 mM
- IC50 growth inhibition [1, 7]: 387 mM
- IC50 growth inhibition [1, 8]: 384 mM
- IC50 growth inhibition [1, 9]: 284 mM
- IC50 growth inhibition [1, 10]: 168 mM
- IC50 growth inhibition [1, 11]: > 500 mM
- IC50 growth inhibition [2, 12]: 354 mM
- IC50 growth inhibition [2, 13]: > 500 mM

Compound: [Cl][Ag] [silver chloride]
- IC50 growth inhibition [1, 3]: 0.139 mM
- IC50 growth inhibition [1, 4]: > 0.5 mM
- IC50 growth inhibition [1, 5]: > 0.5 mM
- IC50 growth inhibition [1, 6]: > 0.5 mM
- IC50 growth inhibition [1, 7]: > 0.5 mM
- IC50 growth inhibition [1, 8]: > 0.5 mM
- IC50 growth inhibition [1, 9]: > 0.5 mM
- IC50 growth inhibition [1, 10]: 0.154 mM
- IC50 growth inhibition [1, 11]: > 0.5 mM
- IC50 growth inhibition [2, 12]: > 0.5 mM
- IC50 growth inhibition [2, 13]: > 0.5 mM

Compound: [Br-].[Na+] [sodium bromide]
- IC50 growth inhibition [1, 3]: 354 mM
- IC50 growth inhibition [1, 4]: 405 mM
- IC50 growth inhibition [1, 5]: 379 mM
- IC50 growth inhibition [1, 6]: 354 mM
- IC50 growth inhibition [1, 7]: 354 mM
- IC50 growth inhibition [1, 8]: 354 mM
- IC50 growth inhibition [1, 9]: 303 mM
- IC50 growth inhibition [1, 10]: 378 mM
- IC50 growth inhibition [1, 11]: 448 mM
- IC50 growth inhibition [2, 12]: > 500 mM
- IC50 growth inhibition [2, 13]: > 500 mM

Compound: [F-].[Na+] [sodium fluoride]
- IC50 growth inhibition [1, 3]: < 0.244 mM
- IC50 growth inhibition [1, 4]: < 0.244 mM
- IC50 growth inhibition [1, 5]: < 0.244 mM
- IC50 growth inhibition [1, 6]: 0.322 mM
- IC50 growth inhibition [1, 7]: 1.11 mM
- IC50 growth inhibition [1, 8]: 1.1 mM
- IC50 growth inhibition [1, 9]: 0.497 mM
- IC50 growth inhibition [1, 10]: 0.477 mM
- IC50 growth inhibition [1, 11]: 2.9 mM
- IC50 growth inhibition [2, 12]: 354 mM
- IC50 growth inhibition [2, 13]: 11.6 mM

Compound: [O-][I+2]([O-])O [sodium iodate]
- IC50 growth inhibition [1, 3]: 4.72 mM
- IC50 growth inhibition [1, 4]: 2.75 mM
- IC50 growth inhibition [1, 5]: 0.645 mM
- IC50 growth inhibition [1, 6]: 3.53 mM
- IC50 growth inhibition [1, 7]: 8.49 mM
- IC50 growth inhibition [1, 8]: 12.4 mM
- IC50 growth inhibition [1, 9]: 0.208 mM
- IC50 growth inhibition [1, 10]: 5.41 mM
- IC50 growth inhibition [1, 11]: 7.77 mM
- IC50 growth inhibition [2, 12]: 35.4 mM
- IC50 growth inhibition [2, 13]: 4.5 mM

Compound: [I-].[Na+] [sodium iodide]
- IC50 growth inhibition [1, 3]: 59.4 mM
- IC50 growth inhibition [1, 4]: > 500 mM
- IC50 growth inhibition [1, 5]: 107 mM
- IC50 growth inhibition [1, 6]: 304 mM
- IC50 growth inhibition [1, 7]: 330 mM
- IC50 growth inhibition [1, 8]: 354 mM
- IC50 growth inhibition [1, 9]: 125 mM
- IC50 growth inhibition [1, 10]: 124 mM
- IC50 growth inhibition [1, 11]: 237 mM
- IC50 growth inhibition [2, 12]: 354 mM
- IC50 growth inhibition [2, 13]: 319 mM

Compound: O=S([O-])[O-].[Na+].[Na+] [sodium sulfite]
- IC50 growth inhibition [1, 3]: 0.261 mM
- IC50 growth inhibition [1, 4]: 0.391 mM
- IC50 growth inhibition [1, 5]: 0.45 mM
- IC50 growth inhibition [1, 6]: < 0.244 mM
- IC50 growth inhibition [1, 7]: 7.58 mM
- IC50 growth inhibition [1, 8]: 1.7 mM
- IC50 growth inhibition [1, 9]: 1.12 mM
- IC50 growth inhibition [1, 10]: < 0.244 mM
- IC50 growth inhibition [1, 11]: 31.7 mM
- IC50 growth inhibition [2, 12]: > 500 mM
- IC50 growth inhibition [2, 13]: 2 mM

Compound: OB1OB2OB(O)OB(O1)O2 [sodium tetraborate decahydrate]
- IC50 growth inhibition [1, 3]: > 5 mM
- IC50 growth inhibition [1, 4]: > 5 mM
- IC50 growth inhibition [1, 5]: > 5 mM
- IC50 growth inhibition [1, 6]: > 5 mM
- IC50 growth inhibition [1, 7]: > 5 mM
- IC50 growth inhibition [1, 8]: > 5 mM
- IC50 growth inhibition [1, 9]: 3.16 mM
- IC50 growth inhibition [1, 10]: > 5 mM
- IC50 growth inhibition [1, 11]: > 5 mM
- IC50 growth inhibition [2, 12]: > 5 mM
- IC50 growth inhibition [2, 13]: > 5 mM
